Values of other authors in patent US20250032585A1, “Effective Doses of CNP Conjugates” (Ascendis Pharma Growth Disorders A/S, priority 2021, published 2025).

Columns and labels:
[1] = tested on: pediatric patients with achondroplasia
NPR-B receptor = settings: pediatric patients with achondroplasia; increase from pre-dose baseline
[2] = in vivo, sc

## vosoritide
[1]; after 52 weeks of treatment
  treatment difference in the change from baseline in annual growth velocity (AGV) compared to placebo: 1.57 cm/year
[1]; human, in vivo
  subjects with decreased blood pressure: 13%
  subjects with symptomatic episode of decreased blood pressure with vomiting and/or dizziness: 3%
NPR-B receptor
  time of maximum urinary cGMP level post-dose: 2 h
[2]
  half-life: 21.0 to 27.9 min
